Each structure is given as a SMILES string.

For one experiment, the target named is HIV-1 protease (Human immunodeficiency virus type 1 group M subtype B (isolate HXB2) (HIV-1), UniProt P04585). Briefly: Inhibition of HIV proteases (inhibition constants, method of Toth and Marshall). Format: biochemical.
Conditions: not given
An excerpt: Techniques for measurement of the ability of the compounds herein described to decrease the proteolytic activity of proteases encoded by HIV are well known to those skilled in the relevant art and any one or combination of such techniques can be used to measure the inhibition of protease activity of the compound herein described. One illustrative method is described by Toth and Marshall (Toth & Marshall, Int. J. Pep. Protein Res. (1990), 36, 544-550). The disclosure of the foregoing is incorporated herein in its entirety by reference. In addition, the entirety of the disclosures of each of the publications cited herein are also incorporated herein by reference.
What is called Ki is the equilibrium dissociation constant of an inhibitor or competing ligand from its target. Regarding `Cc1nc(CN(C)C(=O)c2cccc(C(=O)N[C@@H](Cc3ccccc3)[C@H](O)CN(CC(C)C)S(=O)(=O)c3ccc(N)cc3)c2)c(C)o1`, the inhibition constant (Ki) was found to be 2 nM.
As to `CCCNC(=O)c1cc(OC)cc(C(=O)N[C@@H](Cc2ccccc2)[C@H](O)CN(CC(C)C)S(=O)(=O)c2ccc(OC)cc2)c1`, the Ki was found to be 50 nM.
On the same count and under the same terms, in the case of `CCCN(C)C(=O)c1cc(NC)cc(C(=O)N[C@@H](Cc2ccccc2)[C@H](O)CN(CC(C)C)S(=O)(=O)c2ccc(OC)cc2)c1` it was 200 nM; in that of `CCCNC(=O)c1cc(NC)cc(C(=O)N[C@@H](Cc2ccccc2)[C@H](O)CN(CC(C)C)S(=O)(=O)c2ccc(OC)cc2)c1`, 300 nM; in that of `COc1ccc(S(=O)(=O)N(CC(C)C)C[C@@H](O)[C@H](Cc2ccccc2)NC(=O)c2cc(N)cc(C(=O)N(C)C3CCCCC3)c2)cc1`, 300 nM.
Regarding `COCc1coc(CN(C)C(=O)c2cccc(C(=O)N[C@@H](Cc3ccccc3)[C@H](O)CN(CC(C)C)S(=O)(=O)c3ccc(OC)cc3)c2)n1`, the inhibitory constant (Ki) came to 0.3 nM.
As for `CCCN(C)C(=O)c1cc(C(=O)N[C@@H](Cc2ccccc2)[C@H](O)CN(CC(C)C)S(=O)(=O)c2ccc(OC)cc2)cc(N(C)C(=O)OC(C)(C)C)c1`, the inhibition constant (Ki) was found to be 1000 nM.
As to `COc1ccc(S(=O)(=O)N(CC(C)C)C[C@@H](O)[C@H](Cc2ccccc2)NC(=O)c2cccc(C(=O)N(C)Cc3csc(C)n3)c2)cc1`, the Ki was determined as 0.1 nM.
The same measure, in the same setting: the value for `Cc1nc(CNC(=O)c2cccc(C(=O)N[C@@H](Cc3ccccc3)[C@H](O)CN3C[C@H]4CCCC[C@H]4C[C@H]3C(=O)NC(C)(C)C)c2)c(C)o1` was 20 nM.
For `CNc1cc(C(=O)N[C@@H](Cc2ccccc2)[C@H](O)CN(CC(C)C)S(=O)(=O)c2ccc(OC)cc2)cc(C(=O)N(C)C2CCCCC2)c1`, the Ki was determined as 200 nM.
With `Cc1coc(CN(C)C(=O)c2cccc(C(=O)N[C@@H](Cc3ccccc3)[C@H](O)CN(CC(C)C)S(=O)(=O)c3ccc(CO)cc3)c2)n1`, the Ki was 0.6 nM.
With `CCCN(CCC)C(=O)c1cccc(C(=O)N[C@@H](Cc2ccccc2)[C@H](O)CN(CC(C)C)S(=O)(=O)c2ccc(OC)cc2)c1`, the inhibitory constant (Ki) is 20 nM.
With `CCCN(C)C(=O)c1cc(OC)cc(C(=O)N[C@@H](Cc2ccccc2)[C@H](O)CN(CC(C)C)S(=O)(=O)c2ccc(OC)cc2)c1`, the Ki was found to be 20 nM.
Still for that read-out and setting: the value for `COc1ccc(S(=O)(=O)N(CC(C)C)C[C@@H](O)[C@H](Cc2ccccc2)NC(=O)c2cccc(C(=O)N(C)Cc3oc(C)nc3C)c2)cc1` was 0.6 nM.
In the case of `COc1ccc(S(=O)(=O)N(CC(C)C)C[C@@H](O)[C@H](Cc2ccccc2)NC(=O)c2cccc(C(=O)N3CCC[C@@H]3c3nc(C)cs3)c2)cc1`, the inhibitory constant (Ki) fell in the range of 0.03 to 8 nM.
On to `COc1ccc(S(=O)(=O)N(CC(C)C)C[C@@H](O)[C@H](Cc2ccccc2)NC(=O)c2cc(C)cc(C(=O)N(C)Cc3nc(C)oc3C)c2)cc1`, for which the inhibition constant Ki came to 0.2 nM.
For the molecule `COc1ccc(S(=O)(=O)N(CC(C)C)C[C@@H](O)[C@H](Cc2ccccc2)NC(=O)c2cc(N)cc(C(=O)N(C)Cc3nc(C)oc3C)c2)cc1`, the inhibition constant Ki is 100 nM.
Turning to `COc1ccc(S(=O)(=O)N(CC(C)C)C[C@@H](O)[C@H](Cc2ccccc2)NC(=O)c2cccc(C(=O)N(C)Cc3nc(C)co3)c2)cc1`, the inhibition constant (Ki) came out at 0.6 nM.
The same measure, in the same setting: in the case of `COc1ccc(S(=O)(=O)N(CC(C)C)C[C@@H](O)[C@H](Cc2ccccc2)NC(=O)c2cc(OC)cc(C(=O)N(C)Cc3nc(C)oc3C)c2)cc1` it was 1 nM; in that of `CCCNC(=O)c1cc(N)cc(C(=O)N[C@@H](Cc2ccccc2)[C@H](O)CN(CC(C)C)S(=O)(=O)c2ccc(OC)cc2)c1`, 400 nM; in that of `COc1ccc(S(=O)(=O)N(CC(C)C)C[C@@H](O)[C@H](Cc2ccccc2)NC(=O)c2cccc(C(=O)N3CCC[C@H]3c3nc(C)cs3)c2)cc1`, 30 nM.
The same measure, in the same setting: in the case of `Cc1nc(CN(C)C(=O)c2cccc(C(=O)N[C@@H](Cc3ccccc3)[C@H](O)CN3C[C@H]4CCCC[C@H]4C[C@H]3C(=O)NC(C)(C)C)c2)c(C)o1` it was 5 nM; in that of `COc1ccc(S(=O)(=O)N(CC(C)C)C[C@@H](O)[C@H](Cc2ccccc2)NC(=O)c2ccccc2C(=O)N(C)Cc2nc(C)oc2C)cc1`, 600 nM; in that of `COc1ccc(S(=O)(=O)N(CC(C)C)C[C@@H](O)[C@H](Cc2ccccc2)NC(=O)c2cncc(C(=O)N(C)Cc3nc(C)oc3C)c2)cc1`, 6 nM.
The same measure, in the same setting: the value for `CNc1cc(C(=O)N[C@@H](Cc2ccccc2)[C@H](O)CN(CC(C)C)S(=O)(=O)c2ccc(OC)cc2)cc(C(=O)N(C)Cc2nc(C)oc2C)c1` was 5 nM; that for `COc1ccc(S(=O)(=O)N(CC(C)C)C[C@@H](O)[C@H](Cc2ccccc2)NC(=O)c2cc(C(=O)N(C)C3CCCCC3)cc(N(C)C(=O)OC(C)(C)C)c2)cc1` was 1000 nM.
`CCCN(CCC)C(=O)c1cccc(C(=O)N[C@@H](Cc2ccccc2)[C@H](O)CN2C[C@H]3CCCC[C@H]3C[C@H]2C(=O)NC(C)(C)C)c1`: the Ki amounted to 100 nM.
For `COc1ccc(S(=O)(=O)N(CC(C)C)C[C@@H](O)[C@H](Cc2ccccc2)NC(=O)c2ccc(C(=O)N(C)Cc3nc(C)oc3C)cc2)cc1`, the Ki turned out to be 70 nM.
As for `COc1ccc(S(=O)(=O)N(CC(C)C)C[C@@H](O)[C@H](Cc2ccccc2)NC(=O)c2cc(OC)cc(C(=O)N(C)C3CCCCC3)c2)cc1`, the inhibitory constant (Ki) was 40 nM.

For the next experiment, the system named is HIV-1. Briefly: Inhibition of HIV-1 (IC50). Format: cell-based, human immunodeficiency virus type 1. The settings on record: Human immunodeficiency virus 1.
One may read the IC50 as the concentration that gives 50% inhibition. Regarding `COc1ccc(S(=O)(=O)N(CC(C)C)C[C@@H](O)[C@H](Cc2ccccc2)NC(=O)c2cccc(C(=O)N3CCC[C@@H]3c3nc(C)cs3)c2)cc1`, the IC50 was 32 nM.
In turn, `COc1ccc(S(=O)(=O)N(CC(C)C)C[C@@H](O)[C@H](Cc2ccccc2)NC(=O)c2cc(C)cc(C(=O)N(C)Cc3nc(C)oc3C)c2)cc1` registered an IC50 of 30 nM.
Molecule `COc1ccc(S(=O)(=O)N(CC(C)C)C[C@@H](O)[C@H](Cc2ccccc2)NC(=O)c2cccc(C(=O)N(C)Cc3nc(C)co3)c2)cc1` had an IC50 of 20 nM.
